Measurements reported in ChEMBL document CHEMBL1142649, “Asymmetric synthesis of novel tetrahydroquinoline derivatives with a sugar building block and their bioactivities” (Bioorg Med Chem Lett, 2005).
≈ marks a conversion by molar mass, not a printed value.

What was measured:
HeLa = experiment: Inhibitory concentration against human cervical carcinoma cell line at 48 hours; type: functional, cell-based
[1] = Inhibitory concentration against human esophagus cancer cell line at 72 hours; type: functional, cell-based; settings: cancer cell lines

| Compound | IC50 (HeLa) [mg/L] | IC50 [1] [mg/L] |
| --- | --- | --- |
| CC(=O)O[C@@H]1COC2C1OCC21Nc2ccc(C)cc2[C@]2(Nc3ccc(C)cc3)C3OC[C@@H](OC(C)=O)C3OC12 (some centres not stated) | 150 (≈ 272 µM) | 135 (≈ 245 µM) |
| COc1ccc(N[C@]23c4cc(OC)ccc4NC4(COC5[C@H](O)CO[C@@H]54)C2OC2C3OC[C@H]2O)cc1 (some centres not stated) | 648 (≈ 1300 µM) | > 1000 |
| O[C@@H]1COC2C1OCC21Nc2ccccc2[C@]2(Nc3ccccc3)C3OC[C@@H](O)C3OC12 (some centres not stated) | > 1000 | > 1000 |
| Oc1ccc(NC23c4cc(O)ccc4NC4(COC5C4OC[C@H]5O)C2OC2C3OC[C@H]2O)cc1 (some centres not stated) | > 1000 | 78 (≈ 166 µM) |

Now from value to compound:

| IC50 (HeLa) [mg/L] | IC50 [1] [mg/L] | Compound |
| --- | --- | --- |
| > 1000 | 240 (≈ 514 µM) | Cc1ccc(N[C@]23c4cc(C)ccc4NC4(COC5C4OC[C@H]5O)C2OC2C3OC[C@H]2O)cc1 (some centres not stated) |
| 276 (≈ 592 µM) | 95 (≈ 204 µM) | Cc1cccc(NC23c4ccc(C)cc4NC4(COC5C4OC[C@H]5O)C2O[C@H]2C3OC[C@H]2O)c1 (some centres not stated) |
